{
  "source": "patent US11020340B2",
  "about": "“Compositions containing natural products and use thereof for skin and hair” (Seiberg Consulting, LLC, priority 2017, dated 2021)",
  "test": "ROS-Glo H2O2 assay: removal or elimination of added hydrogen peroxide",
  "format": "biochemical",
  "conditions": "for microM H2O2: Table 2A calibration; for microM H2O2 / Hydrogen peroxide levels, Micro Molar H2O2: 30 minutes at room temperature; for Hydrogen peroxide levels, Micro Molar H2O2: Table 2B",
  "description": "Broken-up algae powders (two independent batches) and the prototype formulations of Table 1A were evaluated for their biological activity in the removal or elimination of hydrogen peroxide by using the ROS-Glo™ H2O2 assay kit (Promega). The ROS-Glo™ H2O2 assay is a homogeneous, rapid and sensitive luminescent assay that measures the level of hydrogen peroxide directly in cell culture or in defined reactions. This assay allows identification of conditions or test compounds, such as small molecule inhibitors or inducers that alter ROS levels. An H2O2 Substrate is employed that reacts directly with H2O2 to generate a luciferin precursor. Upon addition of ROS-Glo™ Detection Reagent containing Ultra-Glo™ Recombinant Luciferase and Cysteine, the precursor is converted to luciferin by the d-Cysteine, and the produced luciferin reacts with Ultra-Glo™ Recombinant Luciferase to generate a luminescent signal that is proportional to H2O2 concentration. In the current study H2O2 was added into the reaction wells and the H2O2-degrading activity of the test agents, at various concentrations, was evaluated after 30 minutes of exposure at room temperature. Glutathione (GSH) served as a positive control and the luminescence results (RLU) of different GSH concentrations were calibrated to hydrogen peroxide concentrations (see Table 2A).\nIn a similar study, one batch of broken-up Porphyridium powder was evaluated for the same biological activity before and after gamma irradiation. The gamma irradiation used was considered weak, and ranged from about 5 to about 15 kGy.\nA broken-up algae powder preparation was evaluated for biological activity (removal or elimination of hydrogen peroxide) using the ROS-Glo™ H2O2 assay kit (Promega), as described in Example 2. The powder was suspended in water and used “as is” (non-denatured) for the assay, or was heated to 100 C for 30 minutes to achieve a complete denaturation. Upon heating, the preparation changed its color from red/pink to yellow/green or to light yellow/colorless.",
  "data": [
    {"smiles": "N[C@@H](CCC(=O)N[C@@H](CS)C(=O)NCC(=O)O)C(=O)O", "note": "[GSH, Glutathione]", "values": [
      {"measurement": "microM H2O2", "setting": "GSH 0.025 %", "value": 151.69, "unit": "µM"},
      {"measurement": "microM H2O2", "setting": "GSH 0.050 %", "value": 105.32, "unit": "µM"},
      {"measurement": "microM H2O2", "setting": "GSH 0.100 %", "value": 67.84, "unit": "µM"},
      {"measurement": "microM H2O2", "setting": "GSH 0.200 %", "value": 45.76, "unit": "µM"},
      {"measurement": "microM H2O2", "setting": "GSH 0.400 %", "value": 14.26, "unit": "µM"},
      {"measurement": "microM H2O2", "setting": "GSH 0.800 %", "value": -7.13, "unit": "µM"},
      {"measurement": "microM H2O2", "setting": "GSH 1.000 %", "value": -10.27, "unit": "µM"},
      {"measurement": "Hydrogen peroxide levels, Micro Molar H2O2", "setting": "0.025 % test agent", "value": 139.566, "unit": "Micro Molar"},
      {"measurement": "Hydrogen peroxide levels, Micro Molar H2O2", "setting": "0.050 % test agent", "value": 112.262, "unit": "Micro Molar"},
      {"measurement": "Hydrogen peroxide levels, Micro Molar H2O2", "setting": "0.100 % test agent", "value": 76.093, "unit": "Micro Molar"},
      {"measurement": "Hydrogen peroxide levels, Micro Molar H2O2", "setting": "0.200 % test agent", "value": 53.453, "unit": "Micro Molar"},
      {"measurement": "Hydrogen peroxide levels, Micro Molar H2O2", "setting": "0.400 % test agent", "value": 25.850, "unit": "Micro Molar"},
      {"measurement": "Hydrogen peroxide levels, Micro Molar H2O2", "setting": "0.800 % test agent", "value": "−6.940", "unit": "Micro Molar"},
      {"measurement": "Hydrogen peroxide levels, Micro Molar H2O2", "setting": "1.000 % test agent", "value": "−8.278", "unit": "Micro Molar"},
      {"measurement": "Micro Molar H2O2", "setting": "Table 2C, 0.0025 % Test/Ref", "value": 58.797, "unit": "Micro Molar"},
      {"measurement": "Micro Molar H2O2", "setting": "Table 2C, 0.0050 % Test/Ref", "value": 49.344, "unit": "Micro Molar"},
      {"measurement": "Micro Molar H2O2", "setting": "Table 2C, 0.0100 % Test/Ref", "value": 52.736, "unit": "Micro Molar"},
      {"measurement": "Micro Molar H2O2", "setting": "Table 2C, 0.0250 % Test/Ref", "value": 41.413, "unit": "Micro Molar"},
      {"measurement": "Micro Molar H2O2", "setting": "Table 2C, 0.0500 % Test/Ref", "value": 28.936, "unit": "Micro Molar"},
      {"measurement": "Micro Molar H2O2", "setting": "Table 2C, 0.1000 % Test/Ref", "value": 16.548, "unit": "Micro Molar"},
      {"measurement": "Micro Molar H2O2", "setting": "Table 2C, 0.2500 % Test/Ref", "value": 6.375, "unit": "Micro Molar"},
      {"measurement": "Micro Molar H2O2", "setting": "Table 2C, 0.5000 % Test/Ref", "value": "−9.043", "unit": "Micro Molar"},
      {"measurement": "Micro Molar H2O2", "setting": "Table 3, 0.025 % test agent", "value": 141.3439, "unit": "Micro Molar"},
      {"measurement": "Micro Molar H2O2", "setting": "Table 3, 0.05 % test agent", "value": 98.16, "unit": "Micro Molar"},
      {"measurement": "Micro Molar H2O2", "setting": "Table 3, 0.1 % test agent", "value": 53.43, "unit": "Micro Molar"},
      {"measurement": "Micro Molar H2O2", "setting": "Table 3, 0.2 % test agent", "value": 10.87, "unit": "Micro Molar"},
      {"measurement": "Micro Molar H2O2", "setting": "Table 3, 0.4 % test agent", "value": "−14.384", "unit": "Micro Molar"},
      {"measurement": "Micro Molar H2O2", "setting": "Table 3, 0.8 % test agent", "value": "−14.5708", "unit": "Micro Molar"}
    ]}
  ]
}
